Patent US10167272B2, “Muscarinic agonists” (Heptares Therapeutics Limited, priority 2015, dated 2019)
Read-outs that look alike come from different tables or passages of the source.

Assays:
[1] = target: T1, human muscarinic M1 receptor (Homo sapiens, UniProt P11229); assay: Alphascreen Surefire phospho-ERK1/2 functional assay, M1; format: cell-based; conditions: for EC50: read-out: pEC50 M1 (converted); for Emax: CHO
T1 sequence (P11229 1-460): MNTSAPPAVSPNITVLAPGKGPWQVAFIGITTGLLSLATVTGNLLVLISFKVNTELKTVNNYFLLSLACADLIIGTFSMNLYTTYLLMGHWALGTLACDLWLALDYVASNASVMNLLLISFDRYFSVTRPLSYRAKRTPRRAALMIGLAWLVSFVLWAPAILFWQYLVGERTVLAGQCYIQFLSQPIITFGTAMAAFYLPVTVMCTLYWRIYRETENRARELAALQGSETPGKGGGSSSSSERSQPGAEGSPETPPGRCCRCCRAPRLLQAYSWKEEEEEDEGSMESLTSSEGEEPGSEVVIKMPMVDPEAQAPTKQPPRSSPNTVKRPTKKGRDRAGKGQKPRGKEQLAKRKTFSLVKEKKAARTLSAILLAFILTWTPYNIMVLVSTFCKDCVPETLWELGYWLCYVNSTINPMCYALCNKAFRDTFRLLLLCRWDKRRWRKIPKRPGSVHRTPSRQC
Experimental: ERK1/2 phosphorylation is a downstream consequence of both Gq/11 and Gi/o protein coupled receptor activation, making it highly suitable for the assessment of M1, M3 (Gq/11 coupled) and M2, M4 receptors (Gi/o coupled), rather than using different assay formats for different receptor subtypes. CHO cells stably expressing the human muscarinic M1, M2, M3 or M4 receptor were plated (25K/well) onto 96-well tissue culture plates in MEM-alpha+10% dialysed FBS. Once adhered, cells were serum-starved overnight. Agonist stimulation was performed by the addition of 5 μL agonist to the cells for 5 min (37° C.). Media was removed and 50 μL of lysis buffer added. After 15 min, a 4 μL sample was transferred to 384-well plate and 7 μL of detection mixture added.

[2] = target: T2, human muscarinic M4 receptor (Homo sapiens, UniProt P08173); assay: Alphascreen Surefire phospho-ERK1/2 functional assay, M4; format: cell-based; conditions: for EC50: read-out: pEC50 M4 (converted); for Emax: CHO
T2 construct: expressed in transfected cells
T2 sequence (P08173 1-479): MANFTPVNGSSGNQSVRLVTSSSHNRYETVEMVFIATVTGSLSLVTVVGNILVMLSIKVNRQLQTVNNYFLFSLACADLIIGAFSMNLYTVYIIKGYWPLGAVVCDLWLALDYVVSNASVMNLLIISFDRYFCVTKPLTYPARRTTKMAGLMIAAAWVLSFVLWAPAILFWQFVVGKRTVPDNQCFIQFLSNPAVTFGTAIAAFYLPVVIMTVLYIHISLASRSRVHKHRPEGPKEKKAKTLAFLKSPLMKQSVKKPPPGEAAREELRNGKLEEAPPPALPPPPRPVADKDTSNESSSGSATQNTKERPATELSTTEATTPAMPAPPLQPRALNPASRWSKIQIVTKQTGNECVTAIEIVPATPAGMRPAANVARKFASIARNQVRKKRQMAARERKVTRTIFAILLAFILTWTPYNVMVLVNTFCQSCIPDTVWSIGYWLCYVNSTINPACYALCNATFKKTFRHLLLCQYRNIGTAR

[3] = CHO cells stably expressing human M1, phospho-ERK1/2
[4] = read-out: % Emax cf. ACh (M1), CHO cells stably expressing human M1, phospho-ERK1/2, relative to ACh
[5] = CHO cells stably expressing human M4, phospho-ERK1/2
[6] = CHO cells stably expressing human M4, phospho-ERK1/2, relative to ACh
[7] = read-out: % Emax cf. ACh (M4), CHO cells stably expressing human M4, phospho-ERK1/2, relative to ACh
[8] = CHO cells stably expressing human M1, phospho-ERK1/2, relative to ACh

Compound	EC50 [1, 3] [nM]	Emax [1, 4] [%]	EC50 [2, 5] [nM]	% Emax cf. ACh (M4) [2, 6] [%]	Emax [2, 7] [%]	Emax ([1]; read-out: % Emax cf. ACh (M1)) [%]	Emax ([2]; read-out: % Emax cf. ACh (M4)) [%]	% Emax cf. ACh (M1) [1, 8] [%]	pEC50 M1 [1, 3]	pEC50 M4 [2, 5]
CCOC(=O)N1CCC2(CC(N3CCC(N(C(C)=O)C4CC4)CC3)C2)C1 (single isomer, unassigned) [2-3 Isomer 1]	2000	78	> 20000	13						
CCOC(=O)N1CCC2(CC(N3CCC(N(Cc4ncco4)C(C)=O)CC3)C2)C1 (single isomer, unassigned) [2-37 Isomer 2]	1260	26	631		55					
CCOC(=O)N1CC2(CC(N3CCC(N(CC)C(C)=O)CC3)C2)C1 [Example 1-2, Ethyl 6-{4-[acetyl(ethyl)amino]piperidin-1-yl}-2-azaspiro[3.3]heptane-2-carboxylate]	6310	59	251		103					
CCOC(=O)N1CCC2(CC(N3CCC(N(CCO)C4CC4)CC3)C2)C1 (single isomer, unassigned) [2-49 Isomer 2]	> 20000	8	1260		78					
CCOC(=O)N1CCC2(CC(N3CCC(C(C)n4cccn4)CC3)C2)C1 (single isomer, unassigned) [2-65 Isomer 1a]	7940	45	> 20000	14						
CCOC(=O)N1CCC2(CC(N3CCC(N(CCO)c4ccccc4)CC3)C2)C1 (single isomer, unassigned) [2-58 Isomer 2]	1260		251			63	74			
CCOC(=O)N1CC2(CC(N3CCC(N(C(C)=O)C4CC4)CC3)C2)C1 [Example 1-1]	2510	72	316		77					
CCOC(=O)N1CCC2(CC(N3CCC(N(CC(C)(F)F)C(C)=O)CC3)C2)C1 (single isomer, unassigned) [2-27 Isomer 2]	631	108	79.4		105					
CCOC(=O)N1CCC2(CC(N3CCC(N(CC4(OC)CCC4)C(C)=O)CC3)C2)C1 (single isomer, unassigned) [2-30 Isomer 1]	1260		126	59				33		
CCOC(=O)N1CCC2(CC(N3CCC(N(CC)C(=O)N(C)C)CC3)C2)C1 (single isomer, unassigned) [Example 2-44 Isomer 2]	2510	55	398		80					
CCOC(=O)N1CCC2(CC(N3CCC(N(CC)CCS(C)(=O)=O)CC3)C2)C1 (single isomer, unassigned) [2-56 Isomer 2]	> 20000	7	1260		41					
CCOC(=O)N1CCC2(CC(N3CCC(N(CC(C)(C)OC)C(C)=O)CC3)C2)C1 (single isomer, unassigned) [2-29 Isomer 1]	> 20000		1260	56				17		
CCOC(=O)N1CCC2(CC(N3CCC(N(CC(F)(F)F)C(C)=O)CC3)C2)C1 (single isomer, unassigned) [2-25 Isomer 2]	3980	125	100		101					
CCOC(=O)N1CCC2(CC(N3CCC(N(Cc4cnco4)C(C)=O)CC3)C2)C1 (single isomer, unassigned) [2-36 Isomer 2]	2510	45	631		71					
CCOC(=O)N1CCC2(CC(N3CCC(CN(C(C)=O)C4CC4)CC3)C2)C1 (single isomer, unassigned) [2-12 Isomer 2]				41				6	< 4.7	6.7
CCOC(=O)N1CCC2(CC(N3CCC(N(CC4(O)CCC4)C(C)=O)CC3)C2)C1 (single isomer, unassigned) [2-31 Isomer 1]	3980		200	62				27		

Compound	EC50 [1, 3] [nM]	Emax [1, 4] [%]	EC50 [2, 5] [nM]	% Emax cf. ACh (M4) [2, 6] [%]	Emax [2, 7] [%]	Emax ([1]; read-out: % Emax cf. ACh (M1)) [%]	Emax ([2]; read-out: % Emax cf. ACh (M4)) [%]	% Emax cf. ACh (M1) [1, 8] [%]	pEC50 M1 [1, 3]	pEC50 M4 [2, 5]
CCOC(=O)N1CCC2(CC(N3CCC(N(CC(C)(C)F)C(C)=O)CC3)C2)C1 (single isomer, unassigned) [2-26 Isomer 1]	> 20000		1000	52				23		
CCOC(=O)N1CCC2(CC(N3CCC(N(C(C)=O)C4CC(F)(F)C4)CC3)C2)C1 (single isomer, unassigned) [2-28 Isomer 2]	158	124	251		80					
CCOC(=O)N1CCC2(CC(N3CCC(N(C(C)=O)C4(C)CCC4)CC3)C2)C1 (single isomer, unassigned) [2-22 Isomer 2]	316	132	79.4		139					
CCOC(=O)N1CCC2(CC(N3CCC(N(CC4(C)COC4)C(C)=O)CC3)C2)C1 (single isomer, unassigned) [2-23 Isomer 2]	1260	43	631		65					
COC(=O)N1CCC2(CC(N3CCC(N(C(C)=O)C4CCC4)CC3)C2)C1 (single isomer, unassigned) [2-15 Isomer 2]	501	117	200		95					
CCOC(=O)N1CCC2(CC(N3CCC(N(CC(C)(C)F)C(C)=O)CC3)C2)C1 (single isomer, unassigned) [2-26 Isomer 2]	398		63.1	114				109		
CCOC(=O)N1CCC2(CC(N3CCC(N(CC)C4COC4)CC3)C2)C1 (single isomer, unassigned) [2-53 Isomer 2]	> 20000	42	251		62					
CCOC(=O)N1CCC2(CC(N3CCC(N(CC4(O)CCC4)C(C)=O)CC3)C2)C1 (single isomer, unassigned) [2-31 Isomer 2]	398		39.8	95				78		
CCN(C(C)=O)C1CCN(C2CC3(CCN(C(=O)OC)C3)C2)CC1 (single isomer, unassigned) [2-17 Isomer 1]	> 20000		1260		87			27		
CCOC(=O)N1CCC2(CC(N3CCC(N(CC(F)(F)F)C(=O)OCCOC)CC3)C2)C1 (single isomer, unassigned) [2-43 Isomer 2]	2510	35	126		91					
CCN(C(C)=O)C1CCN(C2CC3(CCN(C(=O)OC)C3)C2)CC1 (single isomer, unassigned) [2-17 Isomer 2]	1260		200	92				80		
CCCN(C(C)=O)C1CCN(C2CC3(CCN(C(=O)OCC)C3)C2)CC1 (single isomer, unassigned) [2-18 Isomer 2]	2000	89	200		107					
CCOC(=O)N1CCC2(CC(N3CCC(N(CC4CC4)C(C)=O)CC3)C2)C1 (single isomer, unassigned) [2-20 Isomer 1]	> 20000		1000	36				17		
CCOC(=O)N1CCC2(CC(N3CCC(N(CC(C)C)C(C)=O)CC3)C2)C1 (single isomer, unassigned) [2-19 Isomer 1]	1260		251	62				32		
CCOC(=O)N1CCC2(CC(N3CCC(N(CC4(C)CCC4)C(C)=O)CC3)C2)C1 (single isomer, unassigned) [2-21 Isomer 1]	15800		316					51		
